Test system: human Z138 mantle cell lymphoma cell line
Experiment: Tumor growth inhibition study in vivo, Z138 mantle cell lymphoma xenograft
Design: species or system SCID beige mice
Experimental: Cells were co-injected with Matrigel.
Experimental study protocol was reviewed and approved by local government. […] Continuous health monitoring was carried out on regular basis. Diet food (Provimi Kliba 3337) and water (acidified pH 2.5-3) were provided ad libitum.
Animals were controlled daily for clinical symptoms and detection of adverse effects.
The corresponding vehicle was administered on the same days.

B-HH6-B-KV1 GE: afucosylated type II anti-CD20 antibody, humanized B-Ly1, glycoengineered; VH SEQ ID No.7, VL SEQ ID No. 20
tumor growth inhibition (day 35 after tumor cell inoculation, single agent 0.5 mg/kg i.p. q7d once weekly for 3 weeks, compared to the control group): 59%

CCOc1cc(C(C)(C)C)ccc1C1=N[C@@](C)(c2ccc(Cl)cc2)[C@@](C)(c2ccc(Cl)cc2)N1C(=O)N1CCN(CCCS(C)(=O)=O)CC1 [MDM2 inhibitor]
tumor growth inhibition (day 35, single agent 75 mg/kg p.o. once daily, three times weekly over 18 days (FIG. 2)): 35% | tumor growth inhibition (day 35, single agent 150 mg/kg p.o. once daily, three times weekly over 18 days (FIG. 3)): 78%

— patent US20140140988A1, “COMBINATION THERAPY OF AN AFUCOSYLATED CD20 ANTIBODY WITH A MDM2 INHIBITOR” (Roche Glycart AG, priority 2010, published 2014)
